Assay results taken from patent publication US9957311B2, “Surface-binding peptide” (TIKOMED AB, priority 2013, dated 2018).
Entries after “also recorded” stand apart in the source; their conditions may differ.

What was measured:
[1] = Binding of IP-10 derived short peptides to TiO2 P25 particles, absorbance at 206 nm (Experiment 2); conditions: Experiment 2, 50 μg/ml peptide, 25 mg TiO2, 3 h room temperature
Description: 5 mg of eleven peptides (Table 2) were dissolved with 1 ml of water for molecular biology (Sigma-Aldrich, St. Louis, Mo., USA). Working solutions of the different peptides were diluted further with phosphate buffered saline (PBS) (PAA Laboratories GmbH, Pasching, Austria) to 50 μg/ml. 25 mg of TiO2 (P25 from Degussa and P90 from Sigma-Aldrich) were used for the studies. Briefly, 250 μl of peptide solution was incubated with 25 mg of TiO2 powder with different particle size (P25 and P90) in an orbital shaker (IKA Vibrax VXR basic, Staufen, Germany) for 3 h at room temperature. Different controls were used and processed in parallel with the other samples: solutions with peptides alone, PBS alone and P25/P90 in PBS. After this time, all the samples were centrifuged at 13.000×g for 3 min at 20° C. 100 μl of the supernatant solution was carefully collected and placed in a 96-well UV plate and read with PowerWave™ microplate spectrophotometer from BioTek. Absorbances at 206 nm and also spectrum curves for each sample were collected and analysed.

[2] = Binding of IP-10 derived short peptides to nanoparticles, absorbance at 206 nm (Experiment 7); conditions: 50 μg/ml peptide, 3 h room temperature, FIG. 14; for binding to TiO2 nanoparticles: 25 mg TiO2 21 nm; for binding to SiO2 particles: 25 mg SiO2 10-20 nm
Description: Lyophilized peptides were dissolved with water (Sigma, molecular biology degree) to a concentration of 5 mg/ml (Table 6). Working solutions of the different peptides were diluted further with PBS (PAA laboratories) to 50 μg/ml. 25 mg of TiO2 (Titanium(IV) oxide nanopowder, 21 nm particle size, catalog number 718467, Sigma-Aldrich), SiO2 (Silicon dioxide nanopowder, 10-20 nm particle size, catalog number […], Sigma-aldrich), MgO (Magnesium oxide nanopowder, <50 nm particle size, catalog number 549649, Sigma-Aldrich) were used for the studies. Briefly, 250 μl of peptide solution containing 50 μg/ml was incubated with 25 mg of the materials in an orbital shaker for 3 h at room temperature. Different controls were used and processed in parallel with the other samples: solutions with peptides alone, PBS alone and TiO2/SiO2/MgO in PBS. After this time, all the samples were centrifuged at 13.000×g for 3 min at 20° C. 100 μl of the supernatant solution was carefully collected and placed in a 96-well UV plate and read with PowerWave™ microplate spectrophotometer from BioTek. Absorbances at 206 nm and also spectrum curves for each sample were collected and analyzed.

[3] = Binding of fluorescent IP-10 short peptides to titanium foils, fluorescence microscope (Experiment 3); conditions: FITC-labeled peptides 50 μg/ml, 8×8 mm Ti foils, 3 h room temperature, FIG. 7
Description: 5 mg of the different peptides (Table 3), which were labeled with fluorescein isothiocyanate, were dissolved with 1 ml of water with molecular biology degree (Sigma-Aldrich, St. Louis, Mo., USA). Working solutions of the different peptides were diluted further with PBS (PAA Laboratories GmbH, Pasching, Austria) to 50 μg/ml. Briefly, 500 μl of peptide solution was incubated with 8×8 mm Ti foils (Sigma Aldrich, thickness 0.127 mm, 99.7%, cut into 8×8 mm^2 samples) in an orbital shaker (IKA Vibrax VXR basic, Staufen, Germany) for 3 h at room temperature. Experiments were run in duplicate.
Ti foils were rinsed twice with PBS to remove unbound labeled peptides. Remaining liquid was allowed to dry and samples were put on microscope slides. […] Two images of each surface were taken.

integrin β3 = experiment: Immunocytochemistry of integrin β3 in MC3T3-E1 cells on peptide-coated Ti; assay type: cell-based; conditions: FIG. 12; for integrin β3 staining: after 72 h of culture
Description: (§1) Under aseptic conditions, implants were immersed in a 3:7 (v/v) HNO3-DI water solution for 30 min at room temperature. Then, they were rinsed with milliQ water and placed in a covered milliQ water bath for 24 h. Implants were dried with N2 and were placed in a 96-well plates. Then, 200 μl of 50 μg/ml peptide solutions in PBS were added to each implant. Adsorption took place for 24 h at 37° C. in a humidified atmosphere. After 24 h peptide solutions were collected and surfaces were washed with 200 μl of PBS and air-dried in order to perform in vitro experiments.
(§2) MC3T3-E1 cells were routinely cultured at 37° C. in a humidified atmosphere of 5% CO2, and maintained in α-MEM supplemented with 10% FBS and antibiotics (50 IU penicillin/ml and 50 μg streptomycin/ml). 7.0×10^3 cells were seeded on the peptide-coated implants. Trypan blue stain was used to determine total and viable cell number. The same number of cells was cultured in parallel in plastic culture plates in the experiment. All experiments were performed after 4 passages of the MC3T3-E1 cells.
Cells grown for 24 and 72 h on the surfaces were fixed for 15 min with 4% formaldehyde in PBS at room temperature. Cells were incubated with 0.1% Triton X-100 for 5 min, 1% bovine serum albumin for 30 min and then with anti-integrin beta-3 antibody for 1 h at 1:50 dilution in PBS. Then, a Cy3-conjugated goat anti-rabbit IgG was used as secondary antibody for 1.5 h at 1:200 dilution in PBS. For actin cytoskeleton visualization, cells were stained with phalloidin-FITC 5 μg/mL in PBS for 30 min. Cells were washed with PBS and coin-shaped samples were placed on slides. Finally, a drop of Fluoroshield with DAPI was added and cover glasses were mounted on the samples. Two samples of each group were used to perform the experiment and two images of each sample were taken with the confocal microscope (Leica DMI 4000B equipped with Leica TCS SPE laser system).

[4] = Binding of IP-10 derived peptides to TiO2 P90, absorbance at 206 nm (Experiment 1); conditions: 50 μg/mL peptide in PBS, 20 mg TiO2 P90, 3 h room temperature, FIG. 3
Description: This experiment was conducted to find the exact region of the IP-10 molecule that binds to titanium. In this experiment the effect of TiO2 (diameter ˜14 nm, product number P 90, Aerosil Evonic Ind.) on peptides synthesized from the IP-10 molecule by absorbance measurements using a Spektro U29-10 Hitachi spectrophotometer.
Seventeen different peptides having sequences of various portion of IP-10 were dissolved in water and thereafter diluted to working solution (50 μg/mL) in phosphate buffered saline (PBS), see Table 1 and FIG. 2.
The absorbance of the peptides bound to TiO2 surfaces P90 from Sigma-Aldrich) were measured at 206 nm using a Spektro U29-10 Hitachi spectrophotometer. Briefly, 20 mg TiO2 (P90) was incubated with 250 μl of peptide solution. After 3 h incubation on a shaking device in room temperature, with vortexing every hour, the samples were centrifuged (13 000×g, 3 min) and the supernatant was collected. As a negative control, PBS alone was used and positive control was peptide solution alone. Every sample was made in double and the experiments were repeated.

MC3T3-E1 cells = experiment: DNA quantification (cell number) of cells on peptide-coated Ti; assay type: cell-based; conditions: 48 h culture on Ti coated with 50 μg/ml peptide, FIG. 9
Description: as §1, with “Absorption” for “Adsorption”, “cell” for “in vitro”, “experiments. The surfaces were denoted Ti (uncoated Ti), P1 (Ti coated with IP10-RGD), P2 (Ti coated with IP10mut-RGD), P3 (Ti coated with IP10-RGDmut) and P4 (Ti coated with IP10mut-RGDmu).” for “experiments.”
as §2, with “α-minimum essential medium (α-MEM)” for “α-MEM”, “fetal bovine serum (FBS)” for “FBS”, “15” for “4”
Culture media was removed from wells and plates were frozen at −80° C. until the experiment was carried out. At the day of analysis, 100 μl of distilled water were added to each well. Plates were incubated for 1 hour at room temperature. Again, plates were frozen at −80° C. to lysate cells. Plates were thawed until reaching room temperature and 100 μl of Hoechst 33258 at 20 μg/ml in THE buffer were added. Then, 200 μl aliquots were transferred to 96-well fluorescence plates and a spectrophotometer was set to record fluorescence. Relative fluorescence units were correlated with the cell number using a linear standard curve.

Substance: TMKKK (listed as Homo sapiens) [IP2]
- binding to TiO2 particles (in words) [1]: very strong binding; also recorded: best binding sequence
- binding to TiO2 nanoparticles [2]: higher binding

Substance: PESCF (Randomized tag sequence) [IP10r]
- signal from the fluorescent peptides bound to Ti [3]: lowest

Substance: MKKKGEGGGGGGGGRGES (IP-10 derived peptide connected to mutated RGD motif via poly-G-linker) [Peptide P3]
- integrin β3 signal (integrin β3; after 24 h of culture): showed integrin β3 signal
- integrin β3 staining (integrin β3): no clear staining; also recorded: disappeared

Substance: KRCLN (listed as Homo sapiens) [IPE]
- binding to SiO2 particles [2]: binding
- binding to TiO2 nanoparticles [2]: binding

Substance: FCSEPKKKMT (IP-10 derived peptide linked to randomized tag sequence) [IP10b]
- signal from the fluorescent peptides bound to Ti [3]: lower than for IP10 but higher than for IP10r

Substance: MKKKG (listed as Homo sapiens) [IP3]
- binding to TiO2 particles (in words) [1]: very strong binding
- binding to TiO2 nanoparticles [2]: higher binding

Substance: TMKKKPESCF (IP-10 derived peptide linked to randomized tag sequence) [IP10a]
- signal from the fluorescent peptides bound to Ti [3]: lower than for IP10 but higher than for IP10r

Substance: IIATMKKKGEKRCLNPESKA (listed as Homo sapiens) [Peptide 5]
- binding to TiO2 P90 (percentage of peptides absorbed, ranking) [4]: bound most

Substance: IKNLLKAVSKERSKRSP (listed as Homo sapiens) [Peptide 6]
- binding to TiO2 P90 (percentage of peptides absorbed, ranking) [4]: bound most

Substance: RCLNP (listed as Homo sapiens) [IPF]
- binding to SiO2 particles [2]: binding
- binding to TiO2 nanoparticles [2]: binding

Substance: KKKGE (listed as Homo sapiens) [IP4]
- binding to TiO2 particles (in words) [1]: very strong binding
- binding to TiO2 nanoparticles [2]: higher binding

Substance: MTTTGEGGGGGGGGRGDS (Mutated IP-10 derived peptide connected to RGD motif via poly-G-linker) [Peptide P2]
- integrin β3 staining (integrin β3): no clear staining

Substance: ATMKK (listed as Homo sapiens) [IP1]
- binding to TiO2 particles (in words) [1]: very strong binding

Substance: MTTTGEGGGGGGGGRGES (Mutated IP-10 derived peptide connected to mutated RGD motif via poly-G-linker) [Peptide P4]
- number of cells (DNA quantification) (MC3T3-E1 cells): lowest
- number of cells (DNA quantification) (MC3T3-E1 cells; listed as double mutant peptide sequence): lastly
- integrin β3 staining (integrin β3): no clear staining

Substance: KKGEI (IP-10 derived peptide) [IP5]
- binding to TiO2 particles (in words) [1]: very strong binding
